± gives the expanded uncertainty stated by the source.
Assay: xn = mol fraction of the nth substance listed
Conditions: 101 kPa, Liquid; for mass density: Vibrating tube method

NCCCO [3-amino-1-propanol] + CC(C)O
Conditions | mass density, 293.15 K [kg/m3] | mass density, 303.15 K [kg/m3] | mass density, 313.15 K [kg/m3] | mass density, 323.15 K [kg/m3] | mass density, 333.15 K [kg/m3] | viscosity, 293.15 K [mPa·s] | viscosity, 303.15 K [mPa·s] | viscosity, 313.15 K [mPa·s] | viscosity, 323.15 K [mPa·s] | viscosity, 333.15 K [mPa·s]
x1 = 0.1006 | 807.84 ± 0.33 | 799.47 ± 0.33 | 790.86 ± 0.33 | 781.97 ± 0.33 | 772.74 ± 0.34 | 3.076 ± 0.17 | 2.069 ± 0.12 | 1.334 ± 0.08 | 0.761 ± 0.049 | –
x1 = 0.2004 | 830.07 ± 0.33 | 821.75 ± 0.33 | 813.25 ± 0.33 | 804.55 ± 0.33 | 795.57 ± 0.33 | 4.223 ± 0.23 | 2.918 ± 0.16 | 1.964 ± 0.11 | 1.278 ± 0.077 | 0.734 ± 0.048
x1 = 0.3 | 851.78 ± 0.32 | 843.5 ± 0.33 | 835.07 ± 0.33 | 826.48 ± 0.33 | 817.69 ± 0.33 | 5.489 ± 0.29 | 3.955 ± 0.22 | 2.745 ± 0.15 | 1.879 ± 0.11 | 1.203 ± 0.073
x1 = 0.4007 | 873.12 ± 0.32 | 864.86 ± 0.32 | 856.49 ± 0.33 | 848 ± 0.33 | 839.34 ± 0.33 | 7.957 ± 0.39 | 5.363 ± 0.29 | 3.704 ± 0.2 | 2.559 ± 0.14 | 1.75 ± 0.1
x1 = 0.5003 | 894.23 ± 0.32 | 885.99 ± 0.32 | 877.67 ± 0.32 | 869.25 ± 0.33 | 860.69 ± 0.33 | 11.01 ± 0.51 | 7.213 ± 0.36 | 4.931 ± 0.27 | 3.402 ± 0.19 | 2.367 ± 0.14
x1 = 0.6 | 914.21 ± 0.32 | 906 ± 0.32 | 897.72 ± 0.32 | 889.36 ± 0.32 | 880.9 ± 0.32 | 14.58 ± 0.65 | 9.397 ± 0.44 | 6.266 ± 0.32 | 4.356 ± 0.24 | 3.063 ± 0.17
x1 = 0.7002 | 933.43 ± 0.32 | 925.29 ± 0.32 | 916.99 ± 0.32 | 908.67 ± 0.32 | 900.35 ± 0.33 | 19.25 ± 0.83 | 12.09 ± 0.55 | 8.058 ± 0.39 | 5.497 ± 0.29 | 3.88 ± 0.21
x1 = 0.8003 | 952.3 ± 0.33 | 944.26 ± 0.33 | 935.98 ± 0.33 | 927.76 ± 0.33 | 919.55 ± 0.33 | 25.27 ± 1.1 | 15.62 ± 0.69 | 10.17 ± 0.47 | 6.895 ± 0.35 | 4.842 ± 0.26
x1 = 0.9001 | 970.56 ± 0.33 | 962.49 ± 0.33 | 954.37 ± 0.33 | 946.21 ± 0.33 | 937.99 ± 0.33 | 32.08 ± 1.3 | 19.5 ± 0.84 | 12.46 ± 0.56 | 8.337 ± 0.4 | 5.894 ± 0.31
x1 = 1 | 987.65 ± 0.29 | 979.65 ± 0.29 | 971.61 ± 0.29 | 963.52 ± 0.29 | 955.38 ± 0.29 | 40.46 ± 1.7 | 23.98 ± 1 | 15.31 ± 0.68 | 10.22 ± 0.48 | 6.962 ± 0.35

NCCCO [3-amino-1-propanol] + CC(C)CO
Conditions | mass density, 293.15 K [kg/m3] | mass density, 303.15 K [kg/m3] | mass density, 313.15 K [kg/m3] | mass density, 323.15 K [kg/m3] | mass density, 333.15 K [kg/m3] | viscosity, 293.15 K [mPa·s] | viscosity, 303.15 K [mPa·s] | viscosity, 313.15 K [mPa·s] | viscosity, 323.15 K [mPa·s] | viscosity, 333.15 K [mPa·s]
x1 = 0.1037 | 819.8 ± 0.3 | 811.99 ± 0.3 | 804.06 ± 0.3 | 795.93 ± 0.3 | 787.58 ± 0.3 | 5.051 ± 0.27 | 3.521 ± 0.2 | 2.443 ± 0.14 | 1.637 ± 0.096 | 1.025 ± 0.063
x1 = 0.2007 | 837.1 ± 0.3 | 829.27 ± 0.3 | 821.32 ± 0.3 | 813.22 ± 0.3 | 804.93 ± 0.3 | 6.346 ± 0.32 | 4.093 ± 0.23 | 3.059 ± 0.17 | 2.113 ± 0.12 | 1.408 ± 0.084
x1 = 0.3006 | 854.9 ± 0.3 | 847.02 ± 0.3 | 839.04 ± 0.3 | 830.95 ± 0.3 | 822.7 ± 0.31 | 8.282 ± 0.4 | 5.473 ± 0.29 | 3.688 ± 0.2 | 2.534 ± 0.14 | 1.699 ± 0.099
x1 = 0.4002 | 873.2 ± 0.3 | 865.25 ± 0.31 | 857.25 ± 0.31 | 849.16 ± 0.31 | 840.94 ± 0.31 | 10.89 ± 0.5 | 6.995 ± 0.35 | 4.658 ± 0.25 | 3.177 ± 0.18 | 2.155 ± 0.12
x1 = 0.501 | 891.9 ± 0.3 | 883.89 ± 0.31 | 875.86 ± 0.31 | 867.78 ± 0.31 | 859.58 ± 0.31 | 13.95 ± 0.62 | 8.794 ± 0.42 | 5.767 ± 0.3 | 3.903 ± 0.21 | 2.693 ± 0.15
x1 = 0.6007 | 910.4 ± 0.3 | 902.41 ± 0.32 | 894.47 ± 0.32 | 886.34 ± 0.32 | 878.16 ± 0.32 | 17.71 ± 0.77 | 10.85 ± 0.5 | 7.048 ± 0.35 | 4.73 ± 0.26 | 3.251 ± 0.18
x1 = 0.7008 | 929.5 ± 0.3 | 921.49 ± 0.32 | 913.45 ± 0.32 | 905.35 ± 0.32 | 897.17 ± 0.32 | 21.85 ± 0.93 | 13.33 ± 0.6 | 8.496 ± 0.41 | 5.666 ± 0.3 | 3.88 ± 0.21
x1 = 0.8005 | 948.6 ± 0.3 | 940.49 ± 0.33 | 932.36 ± 0.33 | 924.27 ± 0.33 | 916.24 ± 0.33 | 27.18 ± 1.1 | 16.12 ± 0.71 | 10.09 ± 0.47 | 6.695 ± 0.34 | 4.573 ± 0.25
x1 = 0.9005 | – | 960.24 ± 0.34 | 952.19 ± 0.34 | 944.09 ± 0.34 | 935.93 ± 0.34 | 33.2 ± 1.4 | 19.47 ± 0.84 | 12.19 ± 0.55 | 8.029 ± 0.39 | 5.424 ± 0.29
x1 = 1 | 987.55 ± 0.29 | 979.53 ± 0.29 | 971.47 ± 0.29 | 963.37 ± 0.29 | 955.22 ± 0.29 | 40.45 ± 1.7 | 23.98 ± 1 | 15.31 ± 0.68 | 10.22 ± 0.48 | 6.961 ± 0.35
